# Data reported in PMC10187093, “Synthesis, in silico modelling, and in vitro biological evaluation of substituted pyrazole derivatives as potential anti-skin cancer, anti-tyrosinase, and antioxidant agents” (Journal of Enzyme Inhibition and Medicinal Chemistry, 2023).
# Like-named read-outs stand apart in the source and are kept apart here.
# How the values were obtained:
# GFP-A431 = experiment: MTT antiproliferative/cytotoxicity assay, A431; assay type: cell-based, human; details: for IC50: read-out: IC50 GFP-A431; for selectivity index (SI) A431: IC50 HaCaT divided by IC50 A431
# Protocol: (§1) Human-derived GFP-expressing melanoma A375 and epidermoid carcinoma A431 cell lines were purchased from Angio-Proteomie (Boston, MA). Human melanoma carcinoma SK-MEL-28 and human immortalised keratinocytes (HaCaT) cell lines were acquired from American Type Culture Collection (ATCC; Manassas, VA). […] The growth media of incubated cells were changed every 2–3 days until they attained 70–80% confluence, after which they were sub-cultured for experiments and re-passaging. DMSO was used as the vehicle to prepare a 10 mM stock solution of the test compounds.
# (§2) Stock solutions (10 mM) were prepared by dissolving each compound to be screened in DMSO.
# mushroom tyrosinase = target: T1, mushroom tyrosinase (Agaricus bisporus, UniProt C7FF04); experiment: In vitro mushroom tyrosinase inhibition assay; assay type: biochemical; details: for inhibition at 500 µM: read-out: % Inhibition of tyrosinase; for IC50: > 500 = not biologically relevant
# T1 construct: purchased Sigma-Aldrich Chemical Company (St. Louis, MO) and MP Biomedicals (Irvine, CA)
# Protocol: The anti-tyrosinase potential of all the synthesised derivatives was determined by an enzymatic tyrosinase inhibition assay based on their ability to inhibit the substrate, L-tyrosine, from binding to the tyrosinase enzyme. […] Test samples were dissolved in DMSO at a concentration of 10 mM and then diluted to different concentrations with phosphate buffer (0.1 M, pH 6.8). Each well contained 40 µL of the sample with 80 µL of phosphate buffer solution (0.1 M, pH 6.8), 40 µL of tyrosinase enzyme (100 units/mL), and 40 µL L-tyrosine (2.5 mM). The mixture was incubated for 30 min at room temperature, and absorbance was measured at 490 nm. Each sample was accompanied by a sample blank containing all components except tyrosinase. […] The percentage of tyrosinase inhibition was calculated as follows: ((ΔAcontrol – ΔAsample)/ΔAcontrol) × 100. IC50 values denoted the sample concentration required to inhibit 50% tyrosinase activity (Table S1).
# HaCaT = experiment: MTT cytotoxicity assay, noncancerous HaCaT keratinocytes; assay type: cell-based, human; details: Homo sapiens, HaCaT, 48 h, read-out: IC50 HaCaT
# Protocol: (§3) Human-derived GFP-expressing melanoma A375 and epidermoid carcinoma A431 cell lines were purchased from Angio-Proteomie (Boston, MA). Human melanoma carcinoma SK-MEL-28 and human immortalised keratinocytes (HaCaT) cell lines were acquired from American Type Culture Collection (ATCC; Manassas, VA). Human cutaneous SCC cell line SCC-12[192] was generously provided by Dr. James G. Rheinwald to Dr. Tatiana Efimova. Except SK-MEL-28, which was cultured in an RPMI-1640 medium supplemented with 5% FBS, all other human immortalised cell lines were grown and maintained in DMEM containing varying percentages of FBS; 5% FBS for A431, SCC-12, and HaCaT lines, and 10% FBS for A375. All culture media were routinely supplemented with 1% PEST 100X (100 U/mL penicillin, 100 μg/mL streptomycin), and cells were cultured in incubators maintained at 37 °C under an atmosphere of 95% humidity, 20% O2, and 5% CO2. The growth media of incubated cells were changed every 2–3 days until they attained 70–80% confluence, after which they were sub-cultured for experiments and re-passaging. DMSO was used as the vehicle to prepare a 10 mM stock solution of the test compounds.
# (§4) Stock solutions (10 mM) were prepared by dissolving each compound to be screened in DMSO. From these stock solutions, escalating concentrations were prepared using the corresponding cell growth media as a diluent, and the cells (65–75% confluent) were treated with (0–40 µM) or without the drug in sext- to octuplicate and incubated for 48 h. All treatment protocols and controls were prepared as previously described.
# (§5) The potency and cytotoxicity of the test compounds against two cutaneous melanoma (A375 and SK-MEL-28) and two non-melanoma (A431 and SCC-12) SC cell lines in addition to a control immortalised normal human epidermal keratinocytes (HaCaT) cell line were assessed by MTT assay as previously described.
# SK-MEL-28 = experiment: MTT antiproliferative/cytotoxicity assay, SK-MEL-28; assay type: cell-based, human; details: read-out: IC50 SKMEL-28
# Protocol: as §3, §4, §5
# [1] = DPPH free radical scavenging assay; details: for Percent Scavenging (DPPH): 1 mM
# Protocol: An initial screen was done of all 25 derivatives at a concentration of 1 mM. […] Methanol was used as the diluent, and 100 µL of DPPH (200 µM; Sigma-Aldrich, St. Louis, MO) was added to each well. […] The scavenging capacity (SC) was calculated as SC% = ((ΔAcontrol – ΔAsample)/ΔAcontrol) × 100%, where ΔAcontrol was the absorbance of the reagent blank, and ΔAsample was the absorbance of the test samples. The control contained all reagents except the compounds, and all tests were performed in triplicate. Quercetin served as a positive control. The DPPH methanolic solution (1 mL) mixed with DMSO (5 µL) served as a negative control.
# SCC-12 = experiment: MTT antiproliferative/cytotoxicity assay, SCC-12; assay type: cell-based, human; details: for IC50: read-out: IC50 SCC-12; for selectivity index (SI) SCC-12: IC50 HaCaT divided by IC50 SCC-12
# Protocol: as §1, §2
# A375 = experiment: MTT antiproliferative/cytotoxicity assay, A375; assay type: cell-based, human; details: read-out: IC50 A375
# Protocol: as §3, §4, §5
# [2] = Homo sapiens, A-431, 48 h, non-melanoma, MTT, 48 h
# [3] = 500 µM, single-concentration screen
# [4] = read-out: IC50 Value, mushroom tyrosinase inhibition (Table S1)
# [5] = control noncancerous keratinocytes, MTT
# [6] = Homo sapiens, SK-MEL-28, 48 h, melanoma, MTT, 48 h
# [7] = N.A. = No Activity, > 1000 = not biologically relevant, read-out: IC50 Value, DPPH antioxidant activity (Table S4)
# [8] = Homo sapiens, SCC12, 48 h, non-melanoma, MTT, 48 h
# [9] = Homo sapiens, A-375, 48 h, melanoma, MTT, 48 h
# T1 sequence (C7FF04 1-392 limits assumed): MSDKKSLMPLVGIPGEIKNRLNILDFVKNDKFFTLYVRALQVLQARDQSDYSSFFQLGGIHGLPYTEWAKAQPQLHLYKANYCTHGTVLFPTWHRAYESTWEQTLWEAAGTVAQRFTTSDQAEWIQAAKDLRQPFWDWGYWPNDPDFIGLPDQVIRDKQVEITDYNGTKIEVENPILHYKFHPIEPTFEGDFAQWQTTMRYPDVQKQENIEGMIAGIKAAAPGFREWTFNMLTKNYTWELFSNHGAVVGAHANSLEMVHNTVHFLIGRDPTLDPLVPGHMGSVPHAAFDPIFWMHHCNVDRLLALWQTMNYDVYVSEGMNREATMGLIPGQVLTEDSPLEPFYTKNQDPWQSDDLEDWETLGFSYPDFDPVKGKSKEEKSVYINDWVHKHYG
Compound,IC50 (GFP-A431; [2]) [µM],selectivity index (SI) A431 (GFP-A431),inhibition at 500 µM (mushroom tyrosinase; [3]) [%],IC50 (mushroom tyrosinase; [4]) [µM],IC50 (HaCaT; [5]) [µM],IC50 (SK-MEL-28; [6]) [µM],Percent Scavenging (DPPH) [1] [%],"IC50 [1, 7] [µM]",IC50 (SCC-12; [8]) [µM],selectivity index (SI) SCC-12 (SCC-12),IC50 (A375; [9]) [µM],other results
O=C1CC(c2ccc(Br)cc2)=NN1c1ccc(Br)cc1 [P22],13,3.8,46.9,> 500,47.6 ± 1.6,31,77.86,276,19,2.6,29,"IC50 (GFP-A431; non-melanoma, MTT, 48 h): 12.6 ± 1.6 µM; IC50 (SK-MEL-28; melanoma, MTT, 48 h): 31.3 ± 2.4 µM; IC50 (SCC-12; non-melanoma, MTT, 48 h): 18.7 ± 1.4 µM; IC50 (A375; melanoma, MTT, 48 h): 28.7 ± 1.2 µM"
O=C1CC(c2ccc(Br)cc2)=NN1c1ccccc1 [P24],18.6 ± 0.9,3.3,35.2,> 500,60.4 ± 3.2,54.1 ± 1.9,75.14,444,141 ± 3.9,0.4,56.4 ± 1.7,–
"CCc1c(C)n[nH]c1C [P1, 4-Ethyl-3,5-dimethyl-1H-pyrazole]",41.6 ± 0.8,–,6.77,> 500,60.5 ± 3.9,42.8 ± 0.3,5.85,> 1000,257 ± 18.4,–,47.7 ± 4.2,–
"FC(F)(F)c1cc(-c2ccccc2)n(-c2ccccc2)n1 [P15, 1,5-Diphenyl-3-(trifluoromethyl)-1H-pyrazole]",42.9 ± 1,–,32.2,> 500,53.7 ± 3.1,36 ± 3.9,-23.36,–,98 ± 5.5,–,58.5 ± 3.4,–
"Cc1onc2c1CCc1ccccc1-2 [P12, 3-Methyl-4,5-dihydronaphtho[1,2-c]isoxazole]",55.5 ± 3.5,–,69.7 ± 5,336,32.6 ± 2.4,24 ± 2,-1.13,–,32.6 ± 2.1,–,73.5 ± 3.8,–
"CCc1c(C)nn(-c2ccccc2)c1C [P7, 4-Ethyl-3,5-dimethyl-1-phenyl-1H-pyrazole]",47.8 ± 2,–,55.5,> 500,59.2 ± 3.5,46 ± 1,15.47,> 1000,43 ± 2.1,–,53.3 ± 4.2,–
"Cc1[nH]nc2c1ccc1ccccc12 [P6, 3-Methyl-2H-benzo[g]indazole]",69.8 ± 7.5,2.1,81.7 ± 0.7,> 500,147.2 ± 0.8,47.4 ± 1.2,65.17,30.6,49.9 ± 3.4,3.0,114 ± 3.3,IC50 ([1]; read-out: IC50 DPPH radical scavenging): 30.6 ± 2.1 µM
O=C1CC(c2ccc(Br)cc2)=NN1c1ccc(C(F)(F)F)cc1 [P23],23.9 ± 1,1.7,37.6,> 500,40.5 ± 1.5,27.4 ± 2.3,77.61,196,21.7 ± 1.9,1.9,31.2 ± 1.5,–
CC1=NN(c2ccccc2)C(=O)C1(C)O (stereo not drawn) [P20],120 ± 2.6,–,39.7,> 500,47.7 ± 2.7,50 ± 4.3,-20.03,–,57.3 ± 0.2,–,110 ± 15.4,DPPH antioxidant activity (in words) [1]: no appreciable antioxidant activity
"Cc1[nH]nc(-c2ccccc2)c1Cl [P4, 4-Chloro-5-methyl-3-phenyl-1H-pyrazole]",70.8 ± 6.2,–,68.7 ± 0.4,197,76.1,62.3 ± 2.7,-0.84,–,216 ± 13.4,–,58.4 ± 4.5,–
"CCOC(=O)c1c(C)nn(-c2ccccc2)c1C [P10, Ethyl 3,5-dimethyl-1-phenyl-1H-pyrazole-4-carboxylate]",–,–,–,–,–,–,-11.90,–,–,–,–,"IC50 (GFP-A431; Homo sapiens, A-431, 48 h): 196 ± 3.8 µM; IC50 (mushroom tyrosinase; IC50 Value, mushroom tyrosinase inhibition (Table S1)): > 500 µM; inhibition at 500 µM (mushroom tyrosinase): 31%; IC50 (HaCaT): 68 ± 1.2 µM; IC50 (SK-MEL-28; Homo sapiens, SK-MEL-28, 48 h): 43.7 ± 2.7 µM; IC50 (SCC-12; Homo sapiens, SCC12, 48 h): 49.1 ± 2 µM; IC50 (A375; Homo sapiens, A-375, 48 h): 55.3 ± 2.5 µM"
